Measurements from patent US6277835A, “Method of tumor treatment” (priority 2000, dated 2001).

Assays:
[1] = tested on: kidney (blood urea nitrogen); experiment: Serum BUN assay; format: in vivo, C3H mice; conditions: day six
Description: No anticoagulants were used.

[2] = tested on: peripheral white cell counts (bone marrow); experiment: Peripheral white cell counts; conditions: day 3; tirapazamine […]; cisplatin 10, 14 and 18 mg/kg
Protocol: Blood samples were taken from tail veins or by cardiac puncture. No anticoagulants were used. Peripheral white cell counts for individual mice were determined from 20 μl whole blood diluted in 0.280 ml 3% acetic acid. For serum BUN assays, blood from two mice was pooled, coagulated, vortexed, and centrifuged at 830 g for 15 minutes. After the serum was aspirated, BUN values were determined by a commercial clinical veterinary laboratory. Survival to 30 days was also recorded in another experiment.

[3] = tested on: FSaIIC Murine Fibrosarcoma; conditions: cited from earlier work
[4] = tested on: RIF-1 cells; experiment: In vitro RIF-1 clonogenic cell survival under hypoxic conditions; format: cell-based; conditions: Mus musculus, RIF-1, 1 h, read-out: cell survival
Protocol: (§1) For the studies on cells in vitro, RIF-1 cells were seeded into 60 mm glass petri dishes in Waymouth's medium supplemented with 15% fetal bovine serum at a concentration of 2×10^4 cells per dish. The experiments were performed 4 to 5 days later when there were approximately 10^6 cell per dish at the time of treatment. The growth medium was then replaced with 2 ml of medium without serum containing tirapazamine at a concentration of either 2 or 4 μg/ml. […] To achieve hypoxia, the dishes were loaded into specially fabricated, prewarmed aluminum gassing chambers which were placed in a shaking table and connected to a gassing manifold comprising a vacuum outlet line and inlet lines for air or nitrogen (+5% CO^2). […] After gassing, the chambers were sealed and incubated for one hour at 37 C.

[5] = tested on: RIF-1 cells
Protocol: as §1

Compound	BUN level ([1]; 10 mg/kg cisplatin alone, similar to untreated)	BUN level ([1]; 14 mg/kg cisplatin alone, similar to untreated)	BUN level ([1]; 18 mg/kg cisplatin alone)	leukopenia [2]	effect on tumor cells with carmustine ([3]; SR 4233 just before single-dose carmustine)	effect on tumor cells with cyclophosphamide ([3]; SR 4233 just before single-dose cyclophosphamide)	effect on tumor cells with melphalan ([3]; SR 4233 just before single-dose melphalan)	effect with cisplatin ([3]; SR 4233 just prior to single-dose cisplatin)	viability at 2 µg/mL [4] [%]	viability at 4 µg/mL [4] [%]	cytotoxicity under aerobic conditions [5]
N.N.[Cl][Pt][Cl] [cisplatin]	approximately 30 mg/dl	approximately 30 mg/dl	about 80 mg/dl	mild leukopenia	–	–	–	–	–	–	–
Nc1n[n+]([O-])c2ccccc2[n+]1[O-] [tirapazamine, 3-amino-1,2,4-benzotriazine 1,4-dioxide]	–	–	–	–	marked dose enhancement leading to synergistic cytotoxic effects on tumor cells	marked dose enhancement leading to synergistic cytotoxic effects on tumor cells	marked dose enhancement leading to synergistic cytotoxic effects on tumor cells	additive effect, except at the highest dose level of cisplatin	30	0.9	no cytotoxicity
